Patent US7192906B2, “Substituted pyrazole derivatives, production process thereof, and herbicide compositions containing the derivatives” (SDS Biotech K.K., priority 2001, dated 2007)

How the values were obtained:
Type in all cases: in vivo
Rice (Oryza sativa) = test: Test Example 3 paddy field treatment, crop phytotoxicity; settings: active ingredient 1 kg per hectare, index 0-5; for Herbicidal activity (phytotoxicity) OS: Table 6, paddy field treatment, transplanted rice, 21st day after dropping
Experimental: (§1) A plastic pot of 130 cm^2 was filled with paddy soil, and soil puddling was carried out to adjust the submerged depth to 4 cm. Subsequently, seeds of Echinochloa crusgalli, Monochoria vaginalis, Ammannia multiflora and Scirpus juncoides were sowed, and rice (Oryza sative, variety: Koshihikari) of two-leaf period was transplanted by 2 rice plants of 1 stub per pot at a depth of 3 cm. On the 10th day after the transplantation, the wettable powder prepared in Formulation Example 1 was diluted with water such that the amount of the active ingredient became 1 kg per hectare, and then dropped to diffuse on the water surface. On the 21st day after the dropping, observation and evaluation were carried out according to the aforesaid criteria.
(§2) Herbicidal activity was evaluated based on the following criteria.
(§3) • 5: herbicidal effect of not less than 90%, or phytotoxicity of 90% or more • 4: herbicidal effect of not less than 70% and less than 90%, or phytotoxicity of 70% or more and less than 90% • 3: herbicidal effect of not less than 50% and less than 70%, or phytotoxicity of 50% or more and less than 70% • 2: herbicidal effect of not less than 30% and less than 50%, or phytotoxicity of 30% or more and less than 50% • 1: herbicidal effect of not less than 10% and less than 30%, or phytotoxicity of 10% or more and less than 30% • 0: herbicidal effect of not less than 0% and less than 10%, or phytotoxicity of 0% or more and less than 10%

Echinochloa crusgalli = test: Test Example 3 paddy field treatment; settings: active ingredient 1 kg per hectare, index 0-5
Experimental: as §1, §2, §3

Scirpus juncoides = test: Test Example 3 paddy field treatment; settings: active ingredient 1 kg per hectare, index 0-5
Experimental: as §1, §2, §3

Ammannia multiflora = test: Test Example 3 paddy field treatment; settings: active ingredient 1 kg per hectare, index 0-5
Experimental: as §1, §2, §3

Monochoria vaginalis = test: Test Example 3 paddy field treatment; settings: active ingredient 1 kg per hectare, index 0-5
Experimental: as §1, §2, §3

[1] = paddy field treatment, wettable powder, 21st day after the dropping
[2] = Table 6, paddy field treatment, 21st day after dropping

SMILES | Herbicidal activity OS (phytotoxicity to rice) (Rice (Oryza sativa); paddy field treatment, transplanted rice Koshihikari, wettable powder, 21st day after the dropping) | Herbicidal activity EC (Echinochloa crusgalli; [1]) | Herbicidal activity SJ (Scirpus juncoides; [1]) | Herbicidal activity AM (Ammannia multiflora; [1]) | Herbicidal activity MV (Monochoria vaginalis; [1]) | Herbicidal activity (phytotoxicity) OS (Rice (Oryza sativa)) | Herbicidal activity EC (Echinochloa crusgalli; [2]) | Herbicidal activity SJ (Scirpus juncoides; [2]) | Herbicidal activity AM (Ammannia multiflora; [2]) | Herbicidal activity MV (Monochoria vaginalis; [2])
CNC(=O)C(Cn1cc(C)c(-c2cccc(Br)c2)n1)=NOC [Compound 49] | 1 (herbicidal effect of not less than 10% and less than 30%, or phytotoxicity of 10% or more and less than 30%) | 5 (herbicidal effect of not less than 90%, or phytotoxicity of 90% or more) | 5 (herbicidal effect of not less than 90%, or phytotoxicity of 90% or more) | 5 (herbicidal effect of not less than 90%, or phytotoxicity of 90% or more) | 5 (herbicidal effect of not less than 90%, or phytotoxicity of 90% or more) | – | – | – | – | –
CNC(=O)C(Cn1cc(C)c(-c2c(F)cccc2F)n1)=NOC [Compound 58, 2-methoxyimino-3-((2′,6′-difluorophenyl)-4-methyl-pyrazole)-1-yl-propanoic acid-N-methylamide] | – | – | – | – | – | 1 (herbicidal effect of not less than 10% and less than 30%, or phytotoxicity of 10% or more and less than 30%) | 5 (herbicidal effect of not less than 90%, or phytotoxicity of 90% or more) | 5 (herbicidal effect of not less than 90%, or phytotoxicity of 90% or more) | 5 (herbicidal effect of not less than 90%, or phytotoxicity of 90% or more) | 5 (herbicidal effect of not less than 90%, or phytotoxicity of 90% or more)
CNC(=O)C(Cn1cc(C)c(-c2cc(F)cc(F)c2)n1)=NOC [Compound 60] | – | – | – | – | – | 0 (herbicidal effect of not less than 0% and less than 10%, or phytotoxicity of 0% or more and less than 10%) | 5 (herbicidal effect of not less than 90%, or phytotoxicity of 90% or more) | 5 (herbicidal effect of not less than 90%, or phytotoxicity of 90% or more) | 5 (herbicidal effect of not less than 90%, or phytotoxicity of 90% or more) | 5 (herbicidal effect of not less than 90%, or phytotoxicity of 90% or more)
CNC(=O)C(Cn1cc(C)c(-c2cc(Cl)ccc2Cl)n1)=NOC [Compound 73] | – | – | – | – | – | 0 (herbicidal effect of not less than 0% and less than 10%, or phytotoxicity of 0% or more and less than 10%) | 5 (herbicidal effect of not less than 90%, or phytotoxicity of 90% or more) | 4 (herbicidal effect of not less than 70% and less than 90%, or phytotoxicity of 70% or more and less than 90%) | 4 (herbicidal effect of not less than 70% and less than 90%, or phytotoxicity of 70% or more and less than 90%) | 5 (herbicidal effect of not less than 90%, or phytotoxicity of 90% or more)
CNC(=O)C(Cn1cc(C)c(-c2ccc(OC)c(F)c2)n1)=NOC [Compound 76] | – | – | – | – | – | 0 (herbicidal effect of not less than 0% and less than 10%, or phytotoxicity of 0% or more and less than 10%) | 5 (herbicidal effect of not less than 90%, or phytotoxicity of 90% or more) | 5 (herbicidal effect of not less than 90%, or phytotoxicity of 90% or more) | 5 (herbicidal effect of not less than 90%, or phytotoxicity of 90% or more) | 5 (herbicidal effect of not less than 90%, or phytotoxicity of 90% or more)
